The record followed here is patent US9216942B2, “Compounds and uses thereof for treating inflammation and modulating immune responses” (PURAPHARM COMPANY LIMITED, priority 2012, dated 2015).

The structures appear in SMILES notation.

For one data set, the system named is PBMac. Briefly: MTT cytotoxicity assay on PBMac. In kind it is cell-based, Human. The note with it: 25-75 ug/ml, time course of 48 h. Here is the method:
Incubation of PBMac cells with the compounds at various concentrations produces no significant difference in the metabolic activities of the cells, when compared to control. Cytotoxic effects of Compounds A1, A2 and Cim A (25-75 ug/ml) on PBMac are determined by MTT (3-[4,5-dimethylthiazol-2-yl]-2,5-di-phenyltetrazolim bromide) assays over a time course of 48 h.
(§1) Human peripheral blood monocytic cells (PBMC) were isolated from the buffy coat of healthy donor blood supplied by Hong Kong Red Cross by Ficoll-Paque (Amersham Pharmacia Biotech, Piscataway, N.J.) density gradient centrifugation as described in our previous reports. In brief, the buffy coat was spun at 3000 rotations per min (rpm) for 15 min to separate the blood cells and the plasma. The heat inactivated serum was filtered for future use.
(§2) The cell layer was diluted with phosphate buffered saline (PBS) in a ratio of 1:1. The diluted cells were overlaid on Ficoll-Paque slowly and centrifuged at 2300 rpm for 20 min for separation of mononuclear cells from erythrocytes. The mononuclear cell layer was removed and washed with RPMI 1640 medium until the supernatant was clear.
(§3) The cells were finally resuspended in RPMI 1640 medium supplemented with 5% autologous serum and cultured for 1 hr. The non-adherent cells were removed afterwards and the remaining adherent cells were further incubated for another 24 hr at 37° C. in 5% carbon dioxide (CO2).
(§4) The adherent monocytic cells were detached and seeded onto tissue culture plates and incubated for another 7-14 days in order to differentiate the primary blood monocytic cells to primary blood macrophages (PBMac).

Data set [1] concerns LPS-induced TNF-α production. Briefly: Inhibition of LPS-induced TNF-α production in PBMac (ELISA). The class given is cell-based, Human. The note with it: for inhibition of LPS-induced TNF-α protein production: PBMac pre-incubated with compound 18 h, then 10 ng/ml LPS for 24 h, ELISA of supernatant, mean±S.D., compound concentration not given (25 and 50 ug/ml tested). Here is the method:
FIGS. 2 (A-C) show the inhibition of LPS-induced TNF-α production by Compound A1, Compound A2 and Cim A. PBMac cells are incubated with (A) 25 and 50 ug/ml A1 or (B) 25 and 50 ug/ml A2 or (C) 25 and 50 ug/ml Cim A for 18 h prior to the addition of 10 ng/ml LPS for another 24 h. The culture supernatants are collected and assayed for TNF-α production by enzyme-linked immunosorbent assay (ELISA). The results shown are the mean values±standard derivation (S.D.) of at least three independent experiments, with cells obtained from different donors. * P<0.05, ** P<0.01 compared with the control.
Endotoxin (lipopolysachamide, LPS) from E. coli was purchased from Sigma and used as an inducer of TNF-α expression. Dexamethasone (Sigma) was used as a control drug to inhibit the LPS induction of TNF-α.
as §1, §2, §3, §4
Culture supernatants of the LPS-treated PBMac, with or without pretreatment of Cim A, Compound A1 or Compound A2, were collected at different time intervals and stored at −70° C. The levels of the secreted TNF-α were measured by ELISA kits specific for the cytokine (R&D system, Minneapolis, Minn.).

With `COc1ccc(/C=C/C(=O)OCC(=O)Cc2ccc(O)c(O)c2)cc1O` [Cim A, Cimiracemate A, reference compound], in the data set with PBMac, the “cytotoxic effects (MTT, metabolic activity of cells vs control)” value was “almost no cytotoxic effects”. The “inhibition of LPS-induced TNF-α protein production” value in data set [1] turned out to be 50±19%.
The corresponding values for `O=C(COC(=O)/C=C/c1ccc(O)c(O)c1)Cc1cccc(O)c1` [Compound A1] are “almost no cytotoxic effects” and 26±15%.
For the compound `COc1ccc(/C=C/C(=O)OCC(=O)Cc2ccc(O)c(O)c2)cc1` [Compound A2], the “cytotoxic effects (MTT, metabolic activity of cells vs control)” value in the data set with PBMac is “almost no cytotoxic effects”. Moreover, the “inhibition of LPS-induced TNF-α protein production” value in data set [1] came to 67±10%. For the same compound, the “activity in inhibiting LPS-induced TNF-α production, higher than that of Cim A” value in data set [1] (compound at 50 μg/ml, relative to Cim A) was determined as 34%.
